Assay results from PMC11316643 (European journal of medicinal chemistry, 2024).
Where two headings read alike, the source gives them in different places. Blank lines part the entries; values can stand above or below the compound they belong to.

Experiments:
[1] = biological target: human kappa opioid receptor (KOR) (Homo sapiens, UniProt P41145); assay: 35S-GTPγS binding assay of KOR G protein activation in CHO-hKOR membranes; type: biochemical
human KOR = human KOR (Homo sapiens, UniProt P41145); assay: Bias analysis by operational model
Chain of human KOR (P41145 whole entry): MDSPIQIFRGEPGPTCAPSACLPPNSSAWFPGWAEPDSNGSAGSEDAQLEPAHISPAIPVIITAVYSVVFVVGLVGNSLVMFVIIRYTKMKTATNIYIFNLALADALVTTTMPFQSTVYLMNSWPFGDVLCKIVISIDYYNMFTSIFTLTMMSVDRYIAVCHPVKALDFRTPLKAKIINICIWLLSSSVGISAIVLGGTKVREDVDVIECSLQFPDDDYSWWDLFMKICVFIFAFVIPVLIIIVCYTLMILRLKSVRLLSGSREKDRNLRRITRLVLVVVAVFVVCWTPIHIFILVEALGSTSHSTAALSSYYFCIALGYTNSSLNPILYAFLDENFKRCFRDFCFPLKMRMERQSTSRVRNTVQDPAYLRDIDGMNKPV
Chain of human KOR (P32121 whole entry partner): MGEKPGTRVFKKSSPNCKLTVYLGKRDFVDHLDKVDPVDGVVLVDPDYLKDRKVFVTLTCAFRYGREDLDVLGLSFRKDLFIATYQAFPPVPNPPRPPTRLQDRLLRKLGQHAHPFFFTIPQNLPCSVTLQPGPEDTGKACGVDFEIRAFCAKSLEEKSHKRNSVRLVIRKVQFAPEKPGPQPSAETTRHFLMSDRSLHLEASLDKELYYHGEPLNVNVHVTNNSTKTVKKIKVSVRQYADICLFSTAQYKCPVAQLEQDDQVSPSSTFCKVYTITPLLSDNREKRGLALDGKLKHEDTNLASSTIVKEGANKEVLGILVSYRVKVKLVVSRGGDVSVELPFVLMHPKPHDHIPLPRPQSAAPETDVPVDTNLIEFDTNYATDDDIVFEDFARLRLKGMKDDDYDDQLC

Chain of human kappa opioid receptor (KOR) (P41145 whole entry): as the sequence (P41145 whole entry) above

SMILES: Cc1ccc(CCc2nnc(-c3ccccn3)n2-c2ccccc2)cc1C(F)(F)F [2g, 2-(5-(4-Methyl-3-(trifluoromethyl)phenethyl)-4-phenyl-4H-1,2,4-triazol-3-yl)pyridine]
- KOR agonist activity (GTPγS) in words [1]: inactive

- KOR agonist activity (GTPγS) in words ([1]; SAR discussion): significant loss of activity
SMILES: Cc1ccc(CCc2nnc(-c3ccncc3)n2Cc2cccs2)cc1C(F)(F)F [3c, 4-(5-(4-Methyl-3-(trifluoromethyl)phenethyl)-4-(thiophen-2-ylmethyl)-4H-1,2,4-triazol-3-yl)pyridine]

SMILES: Brc1ccccc1CCc1nnc(-c2ccccn2)n1Cc1cccs1 [4g, 2-(5-(2-Bromophenethyl)-4-(thiophen-2-ylmethyl)-4H-1,2,4-triazol-3-yl)pyridine]
- fold decrease in potency of ortho bromo vs para-bromo (4e) [1]: ca. 10 fold

SMILES: Cc1ccc(CCc2nnc(-c3ccccn3)n2Cc2cccs2)cc1C(F)(F)F [2d, 2-(5-(4-Methyl-3-(trifluoromethyl)phenethyl)-4-(thiophen-2-ylmethyl)-4H-1,2,4-triazol-3-yl)pyridine]
- bias (bias factor, G protein over βarrestin2) (human KOR): 38

SMILES: Cc1ccc(/C=C/c2nnc(-c3ccccn3)n2Cc2ccco2)cc1C(F)(F)F [5d, (E)-2-(4-(Furan-2-ylmethyl)-5-(4-methyl-3-(trifluoromethyl)styryl)-4H-1,2,4-triazol-3-yl)pyridine]
- KOR agonist activity (GTPγS) in words [1]: dramatic loss in potency

- KOR agonist activity (GTPγS) in words ([1]; SAR discussion): inactive
SMILES: Cc1ccc(CCc2nnc(-c3ccccn3)n2Cc2ccncc2)cc1C(F)(F)F [2j, 2-(5-(4-Methyl-3-(trifluoromethyl)phenethyl)-4-(pyridin-4-ylmethyl)-4H-1,2,4-triazol-3-yl)pyridine]

SMILES: Cc1ccc(CCc2nnc(-c3ccccc3)n2Cc2cccs2)cc1C(F)(F)F [3a, 3-(4-Methyl-3-(trifluoromethyl)phenethyl)-5-phenyl-4-(thiophen-2-ylmethyl)-4H-1,2,4-triazole]
- KOR agonist activity (GTPγS) in words [1]: significant loss of activity

- KOR agonist activity (GTPγS) in words ([1]; SAR discussion): dramatic loss in potency
SMILES: C(#Cc1nnc(-c2ccccn2)n1Cc1ccco1)c1ccccc1 [5b, 2-(4-(Furan-2-ylmethyl)-5-(phenylethynyl)-4H-1,2,4-triazol-3-yl)pyridine]

- KOR agonist activity (GTPγS) in words ([1]; SAR discussion): detrimental to activity
SMILES: c1ccc(-c2nnc(C3CCc4ccccc4C3)n2Cc2cccs2)nc1 (centres unmarked) [5a, 2-(5-(1,2,3,4-Tetrahydronaphthalen-2-yl)-4-(thiophen-2-ylmethyl)-4H-1,2,4-triazol-3-yl)pyridine]

SMILES: c1ccc(-c2nnc(-c3ccccn3)n2Cc2cccs2)cc1 [5j, 2-(5-Phenyl-4-(thiophen-2-ylmethyl)-4H-1,2,4-triazol-3-yl)pyridine]
- KOR agonist activity (GTPγS) in words [1]: loss of activity

SMILES: Cc1ccc(CCc2nnc(-c3cccnc3)n2Cc2cccs2)cc1C(F)(F)F [3b, 3-(5-(4-Methyl-3-(trifluoromethyl)phenethyl)-4-(thiophen-2-ylmethyl)-4H-1,2,4-triazol-3-yl)pyridine]
- KOR agonist activity (GTPγS) in words [1]: significant loss of activity

SMILES: Cc1ccc(CCc2nnc(-c3ccccn3)n2CC2CC2)cc1C(F)(F)F [2k, 2-(4-(Cyclopropylmethyl)-5-(4-methyl-3-(trifluoromethyl)phenethyl)-4H-1,2,4-triazol-3-yl)pyridine]
- fold decrease in potency on cyclopropane substitution [1]: 10 fold

SMILES: C(=C/c1nnc(-c2ccccn2)n1Cc1ccco1)/c1ccccc1 [5c, (Z)-2-(4-(Furan-2-ylmethyl)-5-styryl-4H-1,2,4-triazol-3-yl)pyridine]
- KOR agonist activity (GTPγS) in words [1]: dramatic loss in potency

SMILES: FC(Cc1ccccc1)c1nnc(-c2ccccn2)n1Cc1ccco1 (centres unmarked) [5g, 2-(5-(1-Fluoro-2-phenylethyl)-4-(furan-2-ylmethyl)-4H-1,2,4-triazol-3-yl)pyridine]
- fold loss of potency compared to compound 4a [1]: 3 fold
